Values quoted from earlier work as cited in the PKSmart pharmacokinetics tables (Seal et al. 2025).

Assay: Lombardo, Berellini, Obach 2018, Drug Metab Dispos 46:1466, doi 10.1124/dmd.118.082966
Conditions: human; for clearance / half-life / MRT / Vd: in vivo, iv; for fraction unbound: plasma

Row | Structure (SMILES) | clearance [mL/min/kg] | half-life [h] | fraction unbound | MRT [h] | Vd [L/kg]
1 | CNC(=O)c1ccccc1Sc1ccc2c(/C=C/c3ccccn3)n[nH]c2c1 | 5 | 4.3 | 0.004 |  | 
2 | CC[C@H]1C2C[C@H]3[C@@H]4N(C)c5ccccc5C45C[C@@H](C2[C@H]5O)N3[C@@H]1O (stereo partly specified) | 9.8 | 7.3 | 0.24 | 6.8 | 4
3 | CCC1C(=O)N(C)c2cnc(Nc3ccc(C(=O)N[C@H]4CC[C@H](N5CCN(CC6CC6)CC5)CC4)cc3OC)nc2N1C(C)C (stereo partly specified) | 11.6 | 113 |  | 116 | 80.5
4 | N=C(N)NC(CS)C(=O)O (stereo unspecified) | 2.88 | 1.34 |  | 1.39 | 0.25
5 | CCCCCCN1CCC(C(=O)N(C)CC)(c2ccccc2)CC1 | 24 | 3.6 |  |  | 
6 | COc1ccc(CCN(C)CCCN2CCc3cc(OC)c(OC)cc3CC2=O)cc1OC | 8.4 | 2.8 |  | 3.2 | 1.6
7 | C[C@](N)(Cc1ccc(O)c(O)c1)C(=O)O | 3.5 | 5.9 |  | 3.3 | 0.69
8 | CC(C1=C(CCN(C)C)Cc2ccccc21)c1ccccn1 (stereo unspecified) | 4.83 | 4.6 |  | 5.98 | 2.16
9 | CC(C)CC1C(=O)N2CCC[C@H]2[C@]2(O)O[C@@](C)(NC(=O)C3C[C@@H]4c5cccc6[nH]cc(c56)C[C@H]4N(C)C3)C(=O)N12 (stereo partly specified) | 12.8 | 8.84 |  | 5.01 | 4.02
10 | CCCCCc1cc(O)c2c(c1)OC(C)(C)c1ccc(C)cc1-2 | 17.9 | 25.5 |  | 15.9 | 17
11 | Cc1cccc(C)c1OCC(C)N (stereo unspecified) | 8.3 | 9.9 | 0.36 | 12 | 5.9
12 | Nc1nc(CC(=O)Nc2ccc(CCNC[C@H](O)c3ccccc3)cc2)cs1 | 13.6 | 50 | 0.29 | 29.3 | 23.8
13 | CNC1=Nc2ccc(Cl)cc2C(c2ccccc2)=[N+](O)C1 |  | 8.3 |  | 11 | 0.25
14 | CN1C2CCC1CC(=C1c3ccccc3CSc3ccccc31)C2 | 4.98 | 29.8 |  | 39.5 | 11.8
15 | CN(C)[C@@H]1C(O)=C(C(N)=O)C(=O)[C@@]2(O)C(O)=C3C(=O)c4c(O)ccc(Cl)c4[C@@H](O)[C@H]3C[C@@H]12 | 1.1 | 12 | 0.59 | 17 | 1.3
16 | C=C1CC[C@@H]2[C@](C)(COC(=O)CCC(=O)O)[C@H](OC(=O)CCC(=O)O)CC[C@@]2(C)[C@@H]1/C=C/C1=CCOC1=O | 2 | 1.9 |  | 1 | 0.13
17 | CC(Oc1ccc(Oc2cnc3ccc(Cl)cc3n2)cc1)C(=O)O (stereo unspecified) | 0.05 | 48.2 | 0.0036 | 63 | 0.19

Row | Structure (SMILES) | clearance [mL/min/kg] | half-life [h] | fraction unbound | MRT [h] | Vd [L/kg]
18 | O=P1(NCCCl)OCCCN1CCCl (stereo unspecified) | 1.1 | 6.6 |  | 9.4 | 0.62
19 | CC(C)[C@@H](CC[C@@H](C)[C@H]1CC[C@H]2[C@@H]3[C@H](O)C[C@H]4C[C@@H](NCCCNCCCCN)CC[C@]4(C)[C@H]3CC[C@]12C)OS(=O)(=O)O | 1.2 | 9.5 |  | 3.2 | 0.23
20 | O=S(=O)(Nc1ccccc1)c1cccc(/C=C/C(O)=NO)c1 | 23.6 | 1.6 | 0.06 | 0.6 | 0.8
21 | Nc1nc(N/N=C/C2CCCCC2)nc2c1ncn2[C@@H]1O[C@H](CO)[C@@H](O)[C@H]1O | 35.8 | 0.21 |  | 0.19 | 0.4
22 | CC(C(=O)O)c1ccc(N2Cc3ccccc3C2=O)cc1 (stereo unspecified) | 0.65 | 2.11 | 0.01 | 2.7 | 0.12
23 | CCCCCCCN(CC)CCCC(O)c1ccc(NS(C)(=O)=O)cc1 (stereo unspecified) | 26 | 7 |  | 7.7 | 12
24 | CCNCC(O)c1cccc(O)c1 (stereo unspecified) | 14 | 2.2 |  | 2.5 | 2.1
25 | CCCC(NC(C)C(=O)N1C(C(=O)O)C[C@@H]2CCCC[C@@H]21)C(=O)O (stereo partly specified) | 1.7 | 29 | 0.16 | 7.6 | 
26 | CCC(=O)O[C@](Cc1ccccc1)(c1ccccc1)[C@H](C)CN(C)C | 15 | 18 | 0.24 | 13 | 12
27 | CN[C@H]1CN(c2ccc3c(=O)c(C(=O)O)cn(-c4nccs4)c3n2)C[C@@H]1OC | 0.79 | 25.5 |  | 30.6 | 1.46
28 | O=C(N[C@H](CO)[C@H](O)c1ccc([N+](=O)[O-])cc1)C(Cl)Cl | 2.4 | 4.6 |  | 6.5 | 0.94
29 | CC(C)=c1nc(N(C)S(C)(=O)=O)nc(-c2ccc(F)cc2)c1=CC[C@@H](O)C[C@@H](O)CC(=O)O | 11 | 2 |  | 2.6 | 1.7
30 | CC[C@]1(O)C[C@H]2CN(CCc3c([nH]c4ccccc34)[C@@](C(=O)OC)(c3cc4c(cc3OC)N(C)[C@H]3[C@@](O)(C(N)=O)[C@H](O)[C@]5(CC)C=CCN6CC[C@]43[C@@H]65)C2)C1 | 2.2 | 35 |  | 38 | 5
31 | O=C(O)C(CCc1ccccc1)NC1CCCN2CCCC(C(=O)O)N2C1=O (stereo unspecified) | 2.1 | 50.6 |  | 29.5 | 3.7
32 | CN(C)CCN(Cc1cccs1)c1ccccn1 | 28 | 1.6 |  | 2 | 3.3
33 | COc1cccc2c1C(=O)c1c(O)c3c(c(O)c1C2=O)C[C@@](O)(C(C)=O)C[C@@H]3O[C@H]1C[C@H](N)[C@H](O)[C@H](C)O1 | 47.6 | 14.2 | 0.06 | 11.2 | 32
34 | N=C(N)NC(=O)Cc1c(Cl)cccc1Cl | 4.5 | 15 |  | 22 | 5.6
